Results reported in ChEMBL document CHEMBL1129675, “New directions in antibacterial research” (1996).
In brackets after ≈: the same amount, converted by molar mass. Blank lines part the entries; values can stand above or below the compound they belong to.

Key:
Enterococcus faecium [1] = assay: Inhibitory activity against VanA strain of E. faecium; Range is 0.03-2 ug/mL; type: functional
Staphylococcus aureus [2] = assay: Inhibitory activity against MRSA; type: functional
Streptococcus pyogenes = assay: Inhibitory activity against Streptococcus pyogenes; type: functional
Streptococcus pneumoniae [3] = assay: Inhibitory activity against Streptococcus pneumoniae; type: functional
[4] = Inhibitory activity against VanB enterococci; Range is 0.016-1 ug/mL; type: functional
Enterococcus faecalis [5] = assay: Inhibitory activity against VanA strain of E. faecalis; Range is 0.03-2 ug/mL
Mus musculus [6] = species on record: Mus musculus; assay: Inhibitory activity against Staphylococcus aureus in mice; type: functional
Mus musculus [7] = species on record: Mus musculus; assay: Inhibitory activity against Streptococcus pneumoniae in mice; type: functional
Mus musculus [8] = species on record: Mus musculus; assay: Inhibitory activity against Streptococcus pyogenes in mice; type: functional
Citrobacter freundii = assay: In vitro inhibitory activity against Citrobacter freundii; type: functional
Enterococcus faecalis [9] = assay: In vitro inhibitory activity against Enterococcus faecalis; type: functional
Enterobacter = assay: In vitro inhibitory activity against Enterobacteriaceae; Range is 0.016-0.5 ug/mL; type: functional
Providencia sp. = assay: In vitro inhibitory activity against Providencia species; type: functional
Serratia marcescens = assay: In vitro inhibitory activity against Serratia marcescens; type: functional
Streptococcus sp. [10] = assay: In vitro inhibitory activity against Streptococci; Range is 0.06-0.25 ug/mL; type: functional
Staphylococcus aureus [11] = assay: In vitro inhibitory activity against ciprofloxacin resistant MRSA; type: functional
[12] = system: Staphylococcus epidermidis; assay: Inhibitory activity against Staphylococcus epidermidis; type: functional
Staphylococcus aureus [13] = assay: Inhibitory activity against Staphylococcus aureus; type: functional
Enterococcus faecalis [14] = assay: Inhibitory activity against VanA strain of E. faecalis; Range is 2-64 ug/mL; type: functional
Enterococcus faecium [15] = assay: Inhibitory activity against VanA strain of E. faecium; Range is 2-64 ug/mL; type: functional
Bacteria = assay: Inhibitory activity against vancomycin-sensitive Gram-positive bacteria; type: functional
Enterococcus = assay: Inhibitory activity against vancomycin-resistant enterococci; type: functional
Enterococcus faecalis [16] = assay: Inhibitory activity against strain of Enterococcus faecalis; type: functional
Enterococcus faecium [17] = assay: Inhibitory activity against strain of Enterococcus faecium; type: functional
Streptococcus sp. [18] = assay: Inhibitory activity against all group A and B Streptococci; type: functional
Staphylococcus sp. [19] = assay: Inhibitory activity against Staphylococci; type: functional
Enterococcus faecalis [20] = assay: Inhibitory activity against strain of E. faecalis; Range is 0.25-2 ug/mL; type: functional
Staphylococcus sp. [21] = assay: Inhibitory activity against ciprofloxacin resistant staphylococci; Range is 2-8 ug/mL; type: functional
Streptococcus pneumoniae [22] = assay: Inhibitory activity against S. pneumoniae; Range is 0.12-0.25 ug/mL; type: functional
Bacteroides fragilis = assay: Inhibitory activity against strain of Bacteroides fragilis; type: functional
Enterococcus faecium [23] = assay: Inhibitory activity against vancomycin-resistant Enterococcus faecium; type: functional
Pseudomonas aeruginosa = assay: Inhibitory activity against ciprofloxacin-resistant Pseudomonas aeruginosa; type: functional
Staphylococcus aureus [24] = assay: Inhibitory activity against ciprofloxacin-resistant Staphylococcus aureus; type: functional
Staphylococcus aureus [25] = assay: Inhibitory activity against strain of Staphylococcus aureus; type: functional
Streptococcus pneumoniae [26] = assay: Inhibitory activity against penicillin-resistant Streptococcus pneumoniae; type: functional
Enterococcus faecalis [27] = assay: Inhibitory activity against strain of Enterococcus faecalis resistant to both vancomycin and teicoplanin
Enterococcus faecium [28] = assay: Inhibitory activity against strain of Enterococcus faecium resistant to both vancomycin and teicoplanin; type: functional
Enterococcus faecium [29] = assay: Inhibitory activity against VanA strain of E. faecium; Range is 64-2108 ug/mL; type: functional

MIC (Enterococcus faecium [1]): 0.03 µg/mL (≈ 0.0168 µM) | MIC (Staphylococcus aureus [2]): ≤ 0.5 µg/mL | MIC (Streptococcus pyogenes): < 0.06 µg/mL | MIC (Streptococcus pneumoniae [3]): < 0.008 µg/mL | MIC [4]: 0.016 µg/mL (≈ 0.00898 µM) | MIC (Enterococcus faecalis [5]): 0.03 µg/mL (≈ 0.0168 µM)
Compound: CCCCCOc1ccc(CN[C@@]2(C)C[C@@H](O[C@H]3[C@H](Oc4c5cc6cc4Oc4ccc(cc4Cl)[C@@H](C[C@H]4C[C@](C)(N)[C@@H](O)[C@H](C)O4)[C@]4(C)NC(=O)[C@H](NC(=O)[C@@H]6NC(=O)[C@H](CC(N)=O)NC(=O)[C@H](NC(=O)[C@@H](CC(C)C)NC)[C@H](O)c6ccc(c(Cl)c6)O5)c5ccc(O)c(c5)-c5c(O)cc(O)cc5[C@@H](C(=O)O)NC4=O)O[C@H](CO)[C@@H](O)[C@@H]3O)O[C@@H](C)[C@@H]2O)cc1

Compound: CNC(=O)C[C@@H]1NC(=O)c2csc(n2)-c2ccc(-c3nc(C4=N[C@H](C(=O)N5CCC[C@H]5C(N)=O)CO4)cs3)nc2-c2csc(n2)-c2csc(n2)[C@H]([C@@H](O)c2ccccc2)NC(=O)CNC(=O)c2nc(sc2COC)[C@H](C(C)C)NC(=O)c2nc1sc2C
ED50 (Mus musculus [6]): 1.8 mg/kg | ED50 (Mus musculus [7]): 15.2 mg/kg | ED50 (Mus musculus [8]): 9.1 mg/kg

Compound: NC1CCN(c2c(F)cc3c(=O)c(C(=O)O)cn(C4CC4)c3c2Cl)C1 (centres undefined) [CLINAFLOXACIN]
MIC90 (Citrobacter freundii): 0.5 µg/mL (≈ 1.37 µM) | MIC90 (Enterococcus faecalis [9]): 0.5 µg/mL (≈ 1.37 µM) | MIC90 (Enterobacter): 0.016 µg/mL (≈ 0.0437 µM) | MIC90 (Providencia sp.): 0.5 µg/mL (≈ 1.37 µM) | MIC90 (Serratia marcescens): 0.5 µg/mL (≈ 1.37 µM) | MIC90 (Streptococcus sp. [10]): 0.06 µg/mL (≈ 0.164 µM) | MIC90 (Staphylococcus aureus [11]): 1 µg/mL (≈ 2.73 µM)

MIC90 [12]: 0.5 µg/mL (≈ 0.724 µM) | MIC90 (Staphylococcus aureus [13]): 1 µg/mL (≈ 1.45 µM)
Compound: CCN(CC)CCS(=O)(=O)[C@@H]1CCN2C(=O)c3coc(n3)CC(=O)C[C@H](O)/C=C(C)/C=C/CNC(=O)/C=C/[C@@H](C)[C@@H](C(C)C)OC(=O)[C@@H]12 [DALFOPRISTIN]

Compound: CN[C@H](CC(C)C)C(=O)N[C@H]1C(=O)N[C@@H](CC(N)=O)C(=O)N[C@H]2C(=O)N[C@H]3C(=O)N[C@](C)(C(=O)N[C@H](C(=O)O)c4cc(O)cc(O)c4-c4cc3ccc4O)[C@H](C[C@H]3C[C@](C)(N)[C@@H](O)[C@H](C)O3)c3ccc(c(Cl)c3)Oc3cc2cc(c3O[C@@H]2O[C@H](CO)[C@@H](O)[C@H](O)[C@H]2O[C@@H]2C[C@](C)(N)[C@@H](O)[C@H](C)O2)Oc2ccc(cc2Cl)[C@H]1O [VANCOMYCIN DERIVATIVE (EPIVANCOMYCIN LINKED WITH ADDITIONAL AMINO SUGAR)]
MIC (Enterococcus faecalis [14]): 2 µg/mL (≈ 1.25 µM) | MIC (Enterococcus faecium [15]): 2 µg/mL (≈ 1.25 µM) | MIC (Bacteria): 32 µg/mL (≈ 19.9 µM) | MIC (Enterococcus): 500 µg/mL (≈ 312 µM)

Compound: N[C@@H]1CN(c2c(F)cc3c(=O)c(C(=O)O)cn(C4C[C@@H]4F)c3c2Cl)CC12CC2 (single isomer, unassigned) [SITAFLOXACIN ANHYDROUS]
MIC90 (Enterococcus faecalis [16]): 1 µg/mL (≈ 2.44 µM) | MIC90 (Enterococcus faecium [17]): 0.5 µg/mL (≈ 1.22 µM) | MIC90 (Streptococcus sp. [18]): ≤ 0.125 µg/mL | MIC90 (Staphylococcus aureus [2]): 1 µg/mL (≈ 2.44 µM) | MIC90 (Staphylococcus sp. [19]): ≤ 0.06 µg/mL

Compound: N[C@@H]1[C@H]2CN(c3nc4c(cc3F)c(=O)c(C(=O)O)cn4-c3ccc(F)cc3F)C[C@@H]12 [TROVAFLOXACIN]
MIC (Enterococcus faecalis [20]): 0.25 µg/mL (≈ 0.6 µM) | MIC (Staphylococcus sp. [21]): 2 µg/mL (≈ 4.8 µM) | MIC (Streptococcus pneumoniae [22]): 0.12 µg/mL (≈ 0.288 µM)

Compound: Cc1c(N2CC[C@H](N)C2)c(F)cn2c(=O)c(C(=O)O)cc(C3CC3)c12 [ABT-719]
MIC90 (Bacteroides fragilis): 0.06 µg/mL (≈ 0.174 µM) | MIC90 (Enterococcus faecium [23]): 0.5 µg/mL (≈ 1.45 µM) | MIC90 (Pseudomonas aeruginosa): 2 µg/mL (≈ 5.79 µM) | MIC90 (Staphylococcus aureus [24]): 0.25 µg/mL (≈ 0.724 µM) | MIC90 (Staphylococcus aureus [25]): 0.015 µg/mL (≈ 0.0434 µM) | MIC90 (Streptococcus pneumoniae [26]): 0.03 µg/mL (≈ 0.0869 µM)

Compound: CN[C@H](CC(C)C)C(=O)N[C@H]1C(=O)N[C@@H](CC(N)=O)C(=O)N[C@H]2C(=O)N[C@H]3C(=O)N[C@H](C(=O)N[C@H](C(=O)O)c4cc(O)cc(O)c4-c4cc3ccc4O)[C@H](O)c3ccc(c(Cl)c3)Oc3cc2cc(c3O[C@@H]2O[C@H](CO)[C@@H](O)[C@H](O)[C@H]2O[C@H]2C[C@](C)(N)[C@H](O)[C@H](C)O2)Oc2ccc(cc2Cl)[C@H]1O [VANCOMYCIN]
MIC (Enterococcus faecalis [27]): ≥ 128 µg/mL | MIC (Enterococcus faecium [28]): ≥ 128 µg/mL | MIC (Enterococcus faecium [29]): 64 µg/mL (≈ 44.2 µM)
